Test results reported in ChEMBL document CHEMBL5356960, “Discovery of Selective and Orally Available Galectin-1 Inhibitors” (J Med Chem, 2023).
Calls of active or inactive are those of the source. The calls are words filed in the database; no cut-off is given here.

Experiments:
Galectin-3 [1] = target: T1, Galectin-3 (Homo sapiens, UniProt P17931); assay: Binding affinity to human galectin-3 assessed as dissociation constant by fluorescence polarization assay
[2] = Protein binding in mouse plasma assessed as unbound fraction at 2 uM incubated for 5 hrs by equilibrium dialysis based LC-MS/MS analysis; assay type: ADME, cell-free
[3] = Lipophilicity, logD of compound at pH 7.4 preincubated with octanol for 5 mins followed by phosphate buffer addition and measured after 1 hrs by shakeflask method based LC-MS/MS analysis; assay type: physicochemical; settings: time 65 min
[4] = Metabolic stability in mouse hepatocytes assessed as intrinsic clearance measured per 10^6 cells at 2 uM incubated for 15 to 120 mins by LC-MS/MS analysis; assay type: ADME, cell-based, Hepatocyte; settings: time 15-120 min, read-out: CLH
[5] = Apparent permeability from basolateral to apical side in human Caco-2 cells at 10 uM incubated for 90 mins by LC-MS/MS analysis; assay type: ADME, cell-based
Galectin-1 [6] = target: T2, Galectin-1 (Homo sapiens, UniProt P09382); assay: Binding affinity to human galectin 1 assessed as dissociation constant incubated for 30 mins in presence of TDGA probe by fluorescence polarization assay
T2 sequence (P09382 whole entry): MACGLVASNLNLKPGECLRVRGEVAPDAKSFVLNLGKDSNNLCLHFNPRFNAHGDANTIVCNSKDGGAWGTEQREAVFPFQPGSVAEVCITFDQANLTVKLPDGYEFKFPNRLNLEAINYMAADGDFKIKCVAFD

[7] = Protein binding in human plasma assessed as unbound fraction at 2 uM incubated for 5 hrs by equilibrium dialysis based LC-MS/MS analysis; assay type: ADME, cell-free
[8] = Metabolic stability in human hepatocytes assessed as intrinsic clearance measured per 10^6 cells at 2 uM incubated for 15 to 120 mins by LC-MS/MS analysis; assay type: ADME, cell-based, Hepatocyte; settings: time 15-120 min, read-out: CLH
[9] = Apparent permeability from apical to basolateral side in human Caco-2 cells at 10 uM incubated for 90 mins by LC-MS/MS analysis; assay type: ADME, cell-based
Jurkat [10] = assay: Inhibition of galectin-1 induced apoptosis in human Jurkat T cells assessed as reduction in caspase-3 activation upto 24 uM incubated for 24 hrs by CellEvent caspase-3/7 green fluorescent detection reagent based imaging analysis; assay type: functional, cell-based
Galectin-1 [11] = target: T2, Galectin-1; assay: Binding affinity to galectin-1 (unknown origin) assessed as dissociation constant
Galectin-3 [12] = target: T1, Galectin-3; assay: Binding affinity to galectin-3 (unknown origin) assessed as dissociation constant
Galectin-3 [13] = target: T3, Galectin-3 (Mus musculus, UniProt P16110); assay: Binding affinity to mouse Galectin-3 assessed as dissociation constant by fluorescence polarization assay
T3 sequence (P16110 whole entry): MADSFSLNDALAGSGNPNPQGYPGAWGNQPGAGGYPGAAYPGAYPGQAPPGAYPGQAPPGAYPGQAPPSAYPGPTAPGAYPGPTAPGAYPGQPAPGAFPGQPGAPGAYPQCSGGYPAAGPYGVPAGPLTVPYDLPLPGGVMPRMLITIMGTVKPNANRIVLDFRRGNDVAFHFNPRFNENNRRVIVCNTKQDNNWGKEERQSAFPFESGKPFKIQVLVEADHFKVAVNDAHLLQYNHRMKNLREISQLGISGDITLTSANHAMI

Galectin-1 [14] = target: T4, Galectin-1 (Mus musculus, UniProt P16045); assay: Binding affinity to mouse Galectin-1 assessed as dissociation constant incubated for 30 mins in the presence of TDGA probe by fluorescence polarization assay
T4 sequence (P16045 whole entry): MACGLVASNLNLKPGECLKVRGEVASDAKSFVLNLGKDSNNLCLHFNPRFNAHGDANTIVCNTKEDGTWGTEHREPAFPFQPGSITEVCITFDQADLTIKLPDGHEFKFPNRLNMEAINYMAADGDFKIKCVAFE

Galectin-8 [15] = target: T5, Galectin-8 (Homo sapiens, UniProt O00214); assay: Binding affinity to N-terminal human Galectin-8 assessed as dissociation constant by fluorescence polarization assay
T5 sequence (O00214 whole entry): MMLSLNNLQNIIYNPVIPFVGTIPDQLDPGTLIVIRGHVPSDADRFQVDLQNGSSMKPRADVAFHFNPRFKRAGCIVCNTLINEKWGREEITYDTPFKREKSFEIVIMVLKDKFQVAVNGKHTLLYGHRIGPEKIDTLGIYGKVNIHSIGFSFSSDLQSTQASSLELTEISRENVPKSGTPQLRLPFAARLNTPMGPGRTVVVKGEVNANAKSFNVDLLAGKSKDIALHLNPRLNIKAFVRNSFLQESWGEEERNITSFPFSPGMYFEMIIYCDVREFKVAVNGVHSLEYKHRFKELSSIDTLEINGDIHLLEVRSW

Galectin-8 [16] = target: T5, Galectin-8; assay: Binding affinity to C-terminal human Galectin-8 assessed as dissociation constant by fluorescence polarization assay
Galectin-7 = Galectin-7 (Homo sapiens, UniProt P47929); assay: Binding affinity to human Galectin-7 assessed as dissociation constant by fluorescence polarization assay
Galectin-7, sequence (P47929 whole entry): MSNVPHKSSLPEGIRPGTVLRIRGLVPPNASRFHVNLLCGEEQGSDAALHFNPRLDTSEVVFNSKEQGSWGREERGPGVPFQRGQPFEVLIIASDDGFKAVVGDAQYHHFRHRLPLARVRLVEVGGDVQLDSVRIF

Galectin-4 [17] = target: T6, Galectin-4 (Homo sapiens, UniProt P56470); assay: Binding affinity to N-terminal human Galectin-4 assessed as dissociation constant by fluorescence polarization assay
T6 sequence (P56470 whole entry): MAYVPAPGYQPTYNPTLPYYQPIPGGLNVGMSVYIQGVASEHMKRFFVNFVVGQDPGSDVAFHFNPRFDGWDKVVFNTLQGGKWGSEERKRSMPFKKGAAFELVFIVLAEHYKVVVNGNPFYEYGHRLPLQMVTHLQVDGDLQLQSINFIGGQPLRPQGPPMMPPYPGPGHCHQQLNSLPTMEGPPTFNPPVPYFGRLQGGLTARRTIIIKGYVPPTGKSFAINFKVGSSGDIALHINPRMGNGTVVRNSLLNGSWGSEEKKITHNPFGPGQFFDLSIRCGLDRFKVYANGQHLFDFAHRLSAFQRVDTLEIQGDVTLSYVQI

Jurkat [18] = assay: Inhibition of galectin-1 induced apoptosis in human Jurkat T cells assessed as reduction in caspase-3 activation incubated for 24 hrs by CellEvent caspase-3/7 green fluorescent detection reagent based imaging analysis
Galectin-1 [19] = target: T2, Galectin-1; assay: Binding affinity to human galectin-1 assessed as dissociation constant by SPR analysis
A549 = assay: Cytotoxicity against human A549 cells assessed as reduction in cell viability incubated for 72 hrs by MTT assay relative to control; assay type: toxicity, cell-based; settings: a549, 72 h
[20] = Cmax in C57BL/6 mouse at 10 mg/kg, po or 1 mg/kg, iv by HPLC analysis; assay type: ADME, organism-based; parameters: dose 10 mg/kg, route po; settings: in vivo
Galectin-1 [21] = target: T4, Galectin-1; assay: Binding affinity to mouse full-length galectin-1 assessed as dissociation constant by SPR analysis
Galectin-9 [22] = target: T7, Galectin-9 (Homo sapiens, UniProt O00182); assay: Binding affinity to N-terminal human Galectin-9 assessed as dissociation constant by fluorescence polarization assay
T7 sequence (O00182 whole entry): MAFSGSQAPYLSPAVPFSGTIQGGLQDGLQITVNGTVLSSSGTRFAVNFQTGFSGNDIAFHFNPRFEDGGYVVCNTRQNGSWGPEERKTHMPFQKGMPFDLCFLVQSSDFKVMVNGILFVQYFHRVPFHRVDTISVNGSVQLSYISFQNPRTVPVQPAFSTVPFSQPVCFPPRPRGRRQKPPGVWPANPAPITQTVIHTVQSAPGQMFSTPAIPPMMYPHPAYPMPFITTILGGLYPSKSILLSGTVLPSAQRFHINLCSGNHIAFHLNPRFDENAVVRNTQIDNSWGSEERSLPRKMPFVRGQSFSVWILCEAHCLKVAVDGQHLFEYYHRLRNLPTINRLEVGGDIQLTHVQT

Galectin-9 [23] = target: T7, Galectin-9; assay: Binding affinity to C-terminal human Galectin-9 assessed as dissociation constant by fluorescence polarization assay
[24] = Tmax in C57BL/6 mouse at 10 mg/kg, po or 1 mg/kg, iv by HPLC analysis; assay type: ADME, organism-based; settings: in vivo
[25] = Cytotoxicity against human A549 cells assessed as inhibition of cell growth incubated for 72 hrs by MTT assay; assay type: toxicity, cell-based
[26] = AUCinfinity in C57BL/6 mouse at 10 mg/kg, po or 1 mg/kg, iv by HPLC analysis; assay type: ADME, organism-based; parameters: dose 10 mg/kg, route po; settings: in vivo
Galectin-4 [27] = target: T6, Galectin-4; assay: Binding affinity to C-terminal human Galectin-4 assessed as dissociation constant by fluorescence polarization assay
[28] = Volume of distribution at steady state in C57BL/6 mouse at 1 mg/kg, iv measured upto 8 hrs by HPLC analysis; assay type: ADME, organism-based; settings: in vivo, read-out: Vdss
[29] = Clearance in C57BL/6 mouse at 1 mg/kg, iv measured upto 8 hrs by HPLC analysis; assay type: ADME, organism-based; settings: in vivo
Galectin-3 [30] = target: T3, Galectin-3; assay: Binding affinity to mouse full-length galectin-3 assessed as dissociation constant by SPR analysis
Galectin-3 [31] = target: T1, Galectin-3; assay: Binding affinity to human galectin-3 assessed as dissociation constant by SPR analysis
[32] = Oral bioavailability in C57BL/6 mouse at 10 mg/kg measured upto 24 hrs by HPLC analysis; assay type: ADME, organism-based; settings: in vivo

T1 sequence (P17931 whole entry): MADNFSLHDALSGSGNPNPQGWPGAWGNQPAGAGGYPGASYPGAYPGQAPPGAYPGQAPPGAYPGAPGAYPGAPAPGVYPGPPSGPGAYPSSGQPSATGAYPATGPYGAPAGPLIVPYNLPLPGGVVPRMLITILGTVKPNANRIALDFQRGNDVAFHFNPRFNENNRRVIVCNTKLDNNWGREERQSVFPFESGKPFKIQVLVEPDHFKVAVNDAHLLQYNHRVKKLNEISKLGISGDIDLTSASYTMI

OC[C@H]1O[C@H](Sc2ccc(Cl)c(Cl)c2)[C@H](O)[C@@H](n2cc(-c3cscn3)nn2)[C@H]1O
Kd (Galectin-3 [1]): 8000 nM | fraction unbound at 5 h, 2 µM [2]: 0.033 | logD at 1 h [3]: > 4 | hepatocyte CLint at 2 µM [4]: < 1.5 µL/min/1e6 cells | Papp B→A at 1.5 h, 10 µM [5]: 50 ×10⁻⁶ cm/s | Kd (Galectin-1 [6]): 350 nM | fraction unbound at 5 h, 2 µM [7]: 0.068 | hepatocyte CLint at 2 µM [8]: 1.1 µL/min/1e6 cells | Papp A→B at 1.5 h, 10 µM [9]: 6 ×10⁻⁶ cm/s

OC[C@H]1O[C@H](Sc2ccc(Cl)c(Cl)c2)[C@H](O)[C@@H](n2cc(-c3ncsn3)nn2)[C@H]1O
Kd (Galectin-3 [1]): 3400 nM | Kd (Galectin-1 [6]): 2000 nM

OC[C@H]1O[C@H](Sc2cc(Cl)c(F)c(Cl)c2)[C@H](O)[C@@H](n2cc(-c3cccs3)nn2)[C@H]1O
Kd (Galectin-3 [1]): 1500 nM | Kd (Galectin-1 [6]): 970 nM

OC[C@H]1O[C@H](Sc2ccc(Cl)c(Cl)c2)[C@H](O)[C@@H](n2cc(-c3nncs3)nn2)[C@H]1O
Kd (Galectin-3 [1]): 1300 nM | Kd (Galectin-1 [6]): 1700 nM

CN(C)CCNC(=O)COc1c2cccc1Cc1cccc(c1OCC(=O)NCCN(C)C)Cc1cccc(c1OCC(=O)NCCN(C)C)Cc1cccc(c1OCC(=O)NCCN(C)C)C2
inhibition (Jurkat [10]): inactive

OC[C@H]1O[C@H](Sc2ccc(Cl)c(Cl)c2)[C@H](O)[C@@H](n2cc(-c3ncc[nH]3)nn2)[C@H]1O
Kd (Galectin-3 [1]): 2100 nM | logD at 1 h [3]: 2.3 | Papp B→A at 1.5 h, 10 µM [5]: 25 ×10⁻⁶ cm/s | Kd (Galectin-1 [6]): 640 nM | Papp A→B at 1.5 h, 10 µM [9]: 0.4 ×10⁻⁶ cm/s

OC[C@H]1O[C@H](Sc2cncc(Br)c2)[C@H](O)[C@@H](n2cc(-c3ccsc3)nn2)[C@H]1O
Kd (Galectin-3 [1]): 1700 nM | logD at 1 h [3]: 2 | Papp B→A at 1.5 h, 10 µM [5]: 31 ×10⁻⁶ cm/s | Kd (Galectin-1 [6]): 680 nM | Papp A→B at 1.5 h, 10 µM [9]: 4.5 ×10⁻⁶ cm/s

OC[C@H]1O[C@H](Sc2cc(Cl)c(F)c(Cl)c2)[C@H](O)[C@@H](n2cc(-c3cncs3)nn2)[C@H]1O
Kd (Galectin-3 [1]): 3000 nM | Kd (Galectin-1 [6]): 22000 nM

OC[C@H]1O[C@H](Sc2ccc(Cl)c(Cl)c2)[C@H](O)[C@@H](n2cc(-c3ncco3)nn2)[C@H]1O
Kd (Galectin-3 [1]): 11000 nM | Kd (Galectin-1 [6]): 2700 nM

OC[C@H]1O[C@H](Sc2ccc(Cl)c(Cl)c2)[C@H](O)[C@@H](n2cc(-c3ccsc3)nn2)[C@H]1O
Kd (Galectin-3 [1]): 2100 nM | fraction unbound at 5 h, 2 µM [2]: 0.015 | logD at 1 h [3]: 3.6 | hepatocyte CLint at 2 µM [4]: 15 µL/min/1e6 cells | Papp B→A at 1.5 h, 10 µM [5]: 18 ×10⁻⁶ cm/s | Kd (Galectin-1 [6]): 280 nM | fraction unbound at 5 h, 2 µM [7]: 0.014 | hepatocyte CLint at 2 µM [8]: 4.9 µL/min/1e6 cells | Papp A→B at 1.5 h, 10 µM [9]: 10 ×10⁻⁶ cm/s

OC[C@H]1O[C@@H](S[C@@H]2O[C@H](CO)[C@H](O)[C@H](n3cc(-c4ccsc4)nn3)[C@H]2O)[C@H](O)[C@@H](n2cc(-c3ccsc3)nn2)[C@H]1O
Kd (Galectin-1 [11]): < 10 nM | Kd (Galectin-3 [12]): 65 nM

OC[C@H]1O[C@H](Sc2ccc(Cl)c(Cl)c2)[C@H](O)[C@@H](n2cc(-c3cc(F)c(F)c(F)c3)nn2)[C@H]1O
Papp B→A at 1.5 h, 10 µM [5]: 20 ×10⁻⁶ cm/s | Papp A→B at 1.5 h, 10 µM [9]: 19 ×10⁻⁶ cm/s

OC[C@H]1O[C@H](Sc2cc(Cl)c(F)c(Cl)c2)[C@H](O)[C@@H](n2cc(-c3nccs3)nn2)[C@H]1O
Kd (Galectin-3 [13]): 5.8 µM | Kd (Galectin-3 [1]): 2700 nM | Kd (Galectin-1 [14]): 230 nM | Kd (Galectin-8 [15]): 65 µM | Kd (Galectin-8 [16]): 130 µM | Kd (Galectin-7): 60 µM | fraction unbound at 5 h, 2 µM [2]: 0.013 | Kd (Galectin-4 [17]): 37 µM | logD at 1 h [3]: 3.1 | hepatocyte CLint at 2 µM [4]: < 1.5 µL/min/1e6 cells | IC50 (Jurkat [18]): 2300 nM | Kd (Galectin-1 [19]): 644 nM | Activity (A549): 46.6% | Cmax [20]: 6900 ng/mL | Kd (Galectin-1 [21]): 363 nM | Kd (Galectin-9 [22]): 16 µM | Papp B→A at 1.5 h, 10 µM [5]: 31 ×10⁻⁶ cm/s | Kd (Galectin-9 [23]): 23 µM | Kd (Galectin-1 [6]): 410 nM | fraction unbound at 5 h, 2 µM [7]: 0.038 | Tmax [24]: 30 min | IC50 at 72 h [25]: > 90 µM | AUC(0-inf) [26]: 3200 ng·h/mL | Kd (Galectin-4 [27]): 2500 nM | hepatocyte CLint at 2 µM [8]: < 1 µL/min/1e6 cells | Vd [28]: 0.4 L/kg | clearance [29]: 7.5 mL/min/kg | Kd (Galectin-3 [30]): 70.4 µM | Kd (Galectin-3 [31]): 62.6 µM | bioavailability [32]: > 99% | Papp A→B at 1.5 h, 10 µM [9]: 11 ×10⁻⁶ cm/s

OC[C@H]1O[C@H](Sc2cc(Cl)c(F)c(Cl)c2)[C@H](O)[C@@H](n2cc(-c3cscn3)nn2)[C@H]1O
Kd (Galectin-3 [1]): 2900 nM | fraction unbound at 5 h, 2 µM [2]: 0.015 | logD at 1 h [3]: 2.9 | hepatocyte CLint at 2 µM [4]: < 1.5 µL/min/1e6 cells | Papp B→A at 1.5 h, 10 µM [5]: 30 ×10⁻⁶ cm/s | Kd (Galectin-1 [6]): 330 nM | fraction unbound at 5 h, 2 µM [7]: 0.033 | hepatocyte CLint at 2 µM [8]: < 1 µL/min/1e6 cells | Papp A→B at 1.5 h, 10 µM [9]: 9 ×10⁻⁶ cm/s
